ChEMBL document CHEMBL1133762, “Aureobasidins: structure-activity relationships for the inhibition of the human MDR1 P-glycoprotein ABC-transporter” (J Med Chem, 2000)

Experiments:
Saccharomyces cerevisiae = assay: Relative antifungal activity (against Saccharomyces cerevisiae) compared to AbA
[1] = target: T1, ATP-dependent translocase ABCB1 (Homo sapiens, UniProt P08183); assay: Direct comparison of the antifungal activities with the relative Pgp-inhibitory potencies, calculated by comparing ug/mL IC50(or IC20).; type: functional
[2] = target: P-glycoprotein (ABCB1, MDR1) (Homo sapiens, UniProt P08183); assay: (§1) Human MDR1 Pgp inhibitory activity by using standard calcein-AM efflux method with the human leukemia CEM cells.; type: cell-based, CCRF-CEM; conditions: probe calcein-AM; for IC50: human, human leukemia CEM cells
[3] = target: T1, ATP-dependent translocase ABCB1; assay: as §1; type: cell-based, CCRF-CEM

T1 sequence (P08183 whole entry): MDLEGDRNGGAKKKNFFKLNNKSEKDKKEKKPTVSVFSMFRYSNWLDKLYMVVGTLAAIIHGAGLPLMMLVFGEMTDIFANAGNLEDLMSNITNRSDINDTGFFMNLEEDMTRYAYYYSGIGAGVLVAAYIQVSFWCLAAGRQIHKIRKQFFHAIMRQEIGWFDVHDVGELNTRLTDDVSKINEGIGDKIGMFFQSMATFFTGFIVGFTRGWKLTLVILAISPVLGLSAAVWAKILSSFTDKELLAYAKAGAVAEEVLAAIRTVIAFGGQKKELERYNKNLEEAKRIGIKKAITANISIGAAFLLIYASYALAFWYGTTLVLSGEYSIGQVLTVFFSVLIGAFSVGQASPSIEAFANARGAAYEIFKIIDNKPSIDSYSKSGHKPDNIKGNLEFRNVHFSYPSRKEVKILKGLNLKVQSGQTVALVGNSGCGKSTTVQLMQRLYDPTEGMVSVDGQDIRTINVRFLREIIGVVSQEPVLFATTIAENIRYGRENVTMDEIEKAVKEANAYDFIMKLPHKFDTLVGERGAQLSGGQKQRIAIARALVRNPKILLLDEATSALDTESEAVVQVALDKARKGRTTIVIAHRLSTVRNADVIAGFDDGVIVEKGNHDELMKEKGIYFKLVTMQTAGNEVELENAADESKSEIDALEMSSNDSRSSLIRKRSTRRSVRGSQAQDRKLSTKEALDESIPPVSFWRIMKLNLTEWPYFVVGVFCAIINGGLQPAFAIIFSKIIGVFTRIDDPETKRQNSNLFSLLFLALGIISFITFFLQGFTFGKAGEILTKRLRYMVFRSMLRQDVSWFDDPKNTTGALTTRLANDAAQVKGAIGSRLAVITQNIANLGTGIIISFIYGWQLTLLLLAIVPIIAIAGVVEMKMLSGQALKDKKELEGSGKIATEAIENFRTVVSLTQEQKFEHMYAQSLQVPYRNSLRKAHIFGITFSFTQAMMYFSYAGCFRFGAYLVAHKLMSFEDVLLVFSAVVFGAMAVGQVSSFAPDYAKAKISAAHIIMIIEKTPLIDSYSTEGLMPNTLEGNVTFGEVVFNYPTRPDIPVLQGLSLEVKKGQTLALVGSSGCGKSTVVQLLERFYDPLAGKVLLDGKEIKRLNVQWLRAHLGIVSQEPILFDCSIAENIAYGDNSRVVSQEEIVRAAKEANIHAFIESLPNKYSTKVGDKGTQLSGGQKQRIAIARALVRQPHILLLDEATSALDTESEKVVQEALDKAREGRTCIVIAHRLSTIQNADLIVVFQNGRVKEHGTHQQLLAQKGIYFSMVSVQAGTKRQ
Sequence of P-glycoprotein (ABCB1, MDR1) (P08183 whole entry): as above

## CC[C@@H](C)[C@@H]1NC(=O)[C@@H]2CCCN2C(=O)[C@H](Cc2ccccc2)N(C)C(=O)[C@H](Cc2ccccc2)NC(=O)[C@H](C(C)C)N(C)C(=O)[C@@H]([C@@H](C)CC)OC(=O)[C@H]([C@H](C)CO)N(C)C(=O)[C@H](CC(C)C)NC(=O)[C@H](C(C)C)N(C)C1=O
Saccharomyces cerevisiae
  antifungal AbA/analogue ratio: 0.06
[1]
  Pgp AbA/analogue ratio: 2.1
[2]
  IC50: 1090 nM
  IC20: 360 nM

## CC[C@@H](C)[C@@H]1NC(=O)[C@@H]2CCCN2C(=O)[C@H](Cc2ccccc2)N(C)C(=O)[C@H](C2CCCCC2)NC(=O)[C@H](C(C)C)N(C)C(=O)[C@@H]([C@@H](C)CC)OC(=O)[C@H](C(C)(C)O)N(C)C(=O)[C@H](CC(C)C)NC(=O)[C@H](C(C)C)N(C)C1=O
Saccharomyces cerevisiae
  antifungal AbA/analogue ratio: 0.25
[1]
  Pgp AbA/analogue ratio: 0.5
[2]
  IC50: 5880 nM
  IC20: 1450 nM

## CC[C@@H](C)[C@@H]1NC(=O)[C@@H]2CCCN2C(=O)[C@H](Cc2ccccc2)N(C)C(=O)[C@H](Cc2ccccc2)NC(=O)[C@H](C(C)C)N(C)C(=O)[C@@H]([C@@H](C)CC)OC(=O)[C@H](C(C)(C)O)N(C)C(=O)[C@H](CC(C)C)NC(=O)[C@H](C(C)C)NC1=O
Saccharomyces cerevisiae
  antifungal AbA/analogue ratio: 0.25
[1]
  Pgp AbA/analogue ratio: 0.3
[2]
  IC50: 7550 nM
  IC20: 2670 nM

## CC[C@@H](C)[C@@H]1NC(=O)[C@@H]2CCCN2C(=O)[C@H](Cc2ccccc2)N(C)C(=O)[C@H](Cc2ccccc2)NC(=O)[C@H](C(C)C)N(C)C(=O)[C@@H]([C@@H](C)CC)OC(=O)C(=C(C)C)N(C)C(=O)[C@H](CC(C)C)NC(=O)[C@H](C(C)C)N(C)C1=O
Saccharomyces cerevisiae
  antifungal AbA/analogue ratio: < 0.016
[1]
  Pgp AbA/analogue ratio: 12.5
[2]
  IC50: 180 nM
  IC20: 60 nM

## CC[C@@H](C)[C@@H]1NC(=O)[C@@H]2CCCN2C(=O)[C@H](Cc2ccccc2)N(C)C(=O)[C@H](Cc2ccccc2)NC(=O)[C@H](C(C)C)N(C)C(=O)[C@@H]([C@@H](C)CC)OC(=O)[C@H](C(C)(C)O)N(C)C(=O)[C@H](CC(C)C)NC(=O)C(C(C)C)OC1=O (some centres not stated)
Saccharomyces cerevisiae
  antifungal AbA/analogue ratio: < 0.016
[1]
  Pgp AbA/analogue ratio: 1.4
[2]
  IC50: 1660 nM
  IC20: 460 nM

## CC[C@H](C)[C@@H]1NC(=O)[C@@H]2CCCN2C(=O)[C@H](Cc2ccccc2)N(C)C(=O)[C@H](Cc2ccccc2)NC(=O)[C@H](C(C)C)N(C)C(=O)[C@@H]([C@@H](C)CC)OC(=O)C(C(C)(C)O)N(C)C(=O)[C@H](CC(C)C)NC(=O)[C@H](C(C)C)N(C)C1=O (some centres not stated)
[2]
  IC20: 100 nM
[3]
  IC50: 360 nM

## CC[C@@H](C)[C@@H]1NC(=O)[C@@H]2CCCN2C(=O)[C@H]([C@H](O)c2ccccc2)N(C)C(=O)[C@H](Cc2ccccc2)NC(=O)[C@H](C(C)C)N(C)C(=O)[C@@H]([C@@H](C)CC)OC(=O)[C@H](C(C)(C)O)N(C)C(=O)[C@H](CC(C)C)NC(=O)[C@H](C(C)C)N(C)C1=O
Saccharomyces cerevisiae
  antifungal AbA/analogue ratio: 0.5
[1]
  Pgp AbA/analogue ratio: 1
[2]
  IC50: 2150 nM
  IC20: 810 nM

## CC[C@@H](C)[C@@H]1NC(=O)CCCCCCCNC(=O)[C@H](C(C)C)N(C)C(=O)[C@@H]([C@@H](C)CC)OC(=O)[C@H](C(C)(C)O)N(C)C(=O)[C@H](CC(C)C)NC(=O)[C@H](C(C)C)N(C)C1=O
Saccharomyces cerevisiae
  antifungal AbA/analogue ratio: < 0.016
[1]
  Pgp AbA/analogue ratio: 0.4
[2]
  IC50: 7420 nM
  IC20: 2630 nM

## CC[C@@H](C)[C@@H]1NC(=O)[C@@H]2CCCN2C(=O)[C@H](Cc2ccccc2)N(C)C(=O)[C@H](Cc2ccccc2)NC(=O)[C@H](C(C)C)N(C)C(=O)[C@@H]([C@@H](C)CC)OC(=O)CN(C)C(=O)[C@H](CC(C)C)NC(=O)[C@H](C(C)C)N(C)C1=O
[1]
  Pgp AbA/analogue ratio: 2.7
[2]
  IC50: 890 nM
  IC20: 310 nM

## CC[C@@H](C)[C@@H]1NC(=O)[C@@H]2CCCN2C(=O)[C@H]([C@H](O)c2ccccc2)N(C)C(=O)[C@H](Cc2ccccc2)NC(=O)[C@H](C(C)C)N(C)C(=O)[C@@H]([C@@H](C)CC)OC(=O)[C@H](C(C)C)N(C)C(=O)[C@H](CC(C)C)NC(=O)[C@H](C(C)C)N(C)C1=O
Saccharomyces cerevisiae
  antifungal AbA/analogue ratio: 0.25
[1]
  Pgp AbA/analogue ratio: 1.7
[2]
  IC50: 1360 nM
  IC20: 460 nM
